Measurements published in patent publication EP4650353A1 (Shanghai Institute of Materia Medica, Chinese Academy of …, priority 2023, dated 2024).

Target: T1, human GLP-1 receptor (Homo sapiens, UniProt P43220)
T1 construct: HA (N); expressed in transfected cells
Experiment: GLP-1 receptor-mediated agonist activity: cAMP level in hGLP-1R/HEK293 cell line (HTRF)
Format: cell-based
Conditions: cAMP levels in hGLP-1R/HEK293 cell line; Table 1; read-out: determined EC50
Experimental: The hGLP-1R/HEK293 cells were digested, centrifuged and resuspended in culture medium (DMEM+0.2% BSA, m/v), and the cell density was adjusted to 2×10^5 cells/mL. IBMX (3-isobutyl-1-methylxanthine, final concentration of 0.5 mM) was added to the cell suspension and added to a 384-well plate at 5 µL (1×10^3 cells)/well. The compound was dissolved in DMSO to prepare a stock solution with a concentration of 10 mM. The experiment started with a concentration of 100 µM which was diluted 10 times in a series of 7 dilution points, with the 8th point being DMSO. 2 µL of the test compound of different concentrations was added to 98 µL of culture medium, shaken and mixed, 5 µL was taken and added to a 384-well plate (final concentration of the test compound was 0-100 nM, final concentration of DMSO was 1%, v/v), which was then incubated in the incubator (37°C, 5% CO2) in the dark for 30 min, then 10 µL of cAMP detection reagent (LANCE Ultra cAMP Detecion Kit, PerkinElmer, #TRF0264) was added, mixed well, and reacted at room temperature in the dark for 1 h. After the reaction was completed, the HTRF signal was read using the Envision 2104 multi-function microplate reader. All samples were tested in triplicate wells, and the ratio of the acceptor-donor excitation signal in each single well was calculated using the formula Ratio = Signal 665nM/Signal 620nM. The HTRF signal ratio and the corresponding compound concentration were analyzed and processed using GraphPad Prism 8 software, and the EC50 value of the compound was obtained by fitting the S-type dose-response curve and calculating.

T1 sequence (P43220 24-463): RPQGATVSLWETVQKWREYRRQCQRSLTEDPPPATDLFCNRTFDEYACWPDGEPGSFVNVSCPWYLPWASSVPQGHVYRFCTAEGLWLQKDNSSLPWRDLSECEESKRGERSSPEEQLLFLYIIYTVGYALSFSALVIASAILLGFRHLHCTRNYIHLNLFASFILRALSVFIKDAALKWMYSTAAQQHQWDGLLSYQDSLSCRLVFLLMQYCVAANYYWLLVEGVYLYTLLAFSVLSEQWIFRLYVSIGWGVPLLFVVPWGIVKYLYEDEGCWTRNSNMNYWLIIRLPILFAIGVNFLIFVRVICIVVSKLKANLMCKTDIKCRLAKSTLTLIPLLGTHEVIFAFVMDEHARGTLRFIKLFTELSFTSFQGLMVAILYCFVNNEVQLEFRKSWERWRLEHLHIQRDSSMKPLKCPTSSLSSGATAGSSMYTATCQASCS

Row | Compound | EC50 [nM]
1 | 4-methoxy-2-((4-(2-(2-methoxy-4-(trifluoromethyl)phenyl)-2-methylbenzo[d][1,3]dioxol-4-yl)piperidin-1-yl)methyl)-1-((S)-oxetan-2-yl)methyl]-1H-benzo[d]imidazole-6-carboxylic acid [Compound 59] | 0.0031
2 | CCOc1cc(C(=O)O)cc2c1nc(CN1CCC(c3cccnc3OCc3ccc(Cl)cc3F)CC1)n2C[C@@H]1CCO1 [Compound 32, (S)-2-((4-(2-((4-chloro-2-fluorobenzyl)oxy)pyridin-3-yl)piperidin-1-yl)methyl)-4-ethoxy-1-(oxetan-2-ylmethyl)-1H-benzo[d]imidazole-6-carboxylic acid] | 0.0142
3 | COc1cc(C(=O)O)cc2c1nc(CN1CCC(c3ccccc3OCc3ccc(Cl)cc3F)CC1)n2C[C@@H]1CCO1 [Compound 48, (S)-2-((4-(2-((4-chloro-2-fluorobenzyl)oxy)phenyl)piperidin-1-yl)methyl)-4-methoxy-1-(oxetan-2-ylmethyl)-1H-benzo[d]imidazole-6-carboxylic acid] | 0.0434
4 | COc1cc(C#N)ccc1COc1cccc(C2CCN(Cc3nc4c(OC)cc(C(=O)O)cc4n3C[C@@H]3CCO3)CC2)c1 [Compound 42, (S)-2-((4-(3-((4-cyano-2-methoxybenzyl)oxy)phenyl)piperidin-1-yl)methyl)-4-methoxy-1-(oxetan-2-ylmethyl)-1H-benzo[d]imidazole-6-carboxylic acid] | 0.0298
5 | COc1cc(C#N)ccc1COc1ncccc1C1CCN(Cc2nc3c(OC)cc(C(=O)O)cc3n2C[C@@H]2CCO2)CC1 [Compound 34, (S)-2-((4-(2-((4-cyano-2-methoxybenzyl)oxy)pyridin-3-yl)piperidin-1-yl)methyl)-4-methoxy-1-(oxetan-2-ylmethyl)-1H-benzo[d]imidazole-6-carboxylic acid] | 0.0033
6 | COc1cc(C(=O)O)cc2c1nc(CN1CCC(c3cccc(OCc4ccc(C#N)c5c4OCC5)c3)CC1)n2C[C@@H]1CCO1 [Compound 43, (S)-2-((4-(3-((4-cyano-2,3-dihydrobenzofuran-7-yl)methoxy)phenyl)piperidin-1-yl)methyl)-4-methoxy-1-(oxetan-2-ylmethyl)-1H-benzo[d]imidazole-6-carboxylic acid] | 0.0342
7 | COc1cc(C(=O)O)cc2c1nc(CN1CCC(c3cccnc3OCc3ccc(Cl)cc3F)CC1)n2C[C@@H]1CCO1 [Compound 31, (S)-2-((4-(2-((4-chloro-2-fluorobenzyl)oxy)pyridin-3-yl)piperidin-1-yl)methyl)-4-methoxy-1-(oxetan-2-ylmethyl)-1H-benzo[d]imidazole-6-carboxylic acid] | 0.037
8 | COc1cc(C(=O)O)cc2c1nc(CN1CCC(c3cccc(OCc4ccc(Cl)c5c4OCC5)n3)CC1)n2C[C@@H]1CCO1 [Compound 16, (S)-2-((4-(6-((4-chloro-2,3-dihydrobenzofuran-7-yl)methoxy)pyridin-2-yl)piperidin-1-yl)methyl)-4-methoxy-1-(oxetan-2-ylmethyl)-1H-benzo[d]imidazole-6-carboxylic acid] | 0.0033
9 | N#Cc1ccc(COc2cccc(N3C=NN(Cc4nc5c(OC(F)F)cc(C(=O)O)cc5n4C[C@@H]4CCO4)CC3)n2)c(F)c1 [Compound 11, (S)-2-((4-(6-((4-cyano-2-fluorobenzyl)oxy)pyridin-2-yl)-5,6-dihydro-1,2,4-triazin-1(4H)-yl)methyl)-4-(difluoromethoxy)-1-(oxetan-2-ylmethyl)-1H-benzo[d]imidazole-6-carboxylic acid] | 0.0133
10 | COc1cc(C(=O)O)cc2c1nc(CN1CCC(c3cccc(OCc4ccc(C#N)c5c4OCC5)n3)CC1)n2C[C@@H]1CCO1 [Compound 15, (S)-2-((4-(6-((4-cyano-2,3-dihydrobenzofuran-7-yl)methoxy)pyridin-2-yl)piperidin-1-yl)methyl)-4-methoxy-1-(oxetan-2-ylmethyl)-1H-benzo[d]imidazole-6-carboxylic acid] | 0.0019

Results, then the compound that gave them:

Row | EC50 [nM] | Compound
11 | 0.008 | CCOc1cc(C(=O)O)cc2c1nc(CN1CCC(c3cccc4c3OC(C)(c3ccc(Cl)cn3)O4)CC1)n2C[C@@H]1CCO1 (stereo partly drawn) [Compound 39, 2-((4-(2-(5-chloropyridin-2-yl)-2-methylbenzo[d][1,3]dioxol-4-yl)piperidin-1-yl)methyl)-4-ethoxy-1-(((S)-oxetan-2-yl)methyl)-1H-benzo[d]imidazole-6-carboxylic acid]
12 | 0.0229 | COc1cc(C(=O)O)cc2c1nc(CN1CCC(c3cccc4c3OC(C)(c3ccc(Cl)cn3)O4)CC1)n2C[C@@H]1CCO1 (stereo partly drawn) [Compound 38, 2-((4-(2-(5-chloropyridin-2-yl)-2-methylbenzo[d][1,3]dioxol-4-yl)piperidin-1-yl)methyl)-4-methoxy-1-(((S)-oxetan-2-yl)methyl)-1H-benzo[d]imidazole-6-carboxylic acid]
13 | 0.005 | CCOc1cc(C(=O)O)cc2c1nc(CN1CCN(c3cccc4c3OC(C)(c3ccc(Cl)cc3OC)O4)C=N1)n2C[C@@H]1CCO1 (stereo partly drawn) [Compound 85, 2-((4-(2-(4-chloro-2-methoxyphenyl)-2-methylbenzo[d][1,3]dioxol-4-yl)-5,6-dihydro-1,2,4-triazin-1(4H)-yl)methyl)-4-ethoxy-1-(((S)-oxetan-2-yl)methyl)-1H-benzo[d]imidazole-6-carboxylic acid]
14 | 0.049 | COc1cc(C(=O)O)cc2c1nc(CN1CCN(c3cccc4c3OC(C)(c3ccc(C(F)(F)F)cn3)O4)C=N1)n2C[C@@H]1CCO1 (stereo partly drawn) [Compound 65, 4-methoxy-2-((4-(2-methyl-2-(5-(trifluoromethyl)pyridin-2-yl)benzo[d][1,3]dioxol-4-yl)-5,6-dihydro-1,2,4-triazin-1(4H)-yl)methyl)-1-(((S)-oxetan-2-yl)methyl)-1H-benzo[d]imidazole-6-carboxylic acid]
15 | 0.0165 | [2H]C([2H])([2H])C([2H])([2H])Oc1cc(C(=O)O)cc2c1nc(CN1CCN(c3cccc4c3OC(C)(c3ccc(Cl)c(F)c3F)O4)C=N1)n2C[C@@H]1CCO1 (stereo partly drawn) [Compound 77, 2-((4-(2-(4-chloro-2,3-difluorophenyl)-2-methylbenzo[d][1,3]dioxol-4-yl)-5,6-dihydro-1,2,4-triazin-1(4H)-yl)methyl)-4-(ethoxy-d5)-1-(((S)-oxetan-2-yl)methyl)-1H-benzo[d]imidazole-6-carboxylic acid]
16 | 0.0098 | [2H]C([2H])([2H])Oc1cc(C(=O)O)cc2c1nc(CN1CCN(c3cccc4c3OC(C)(c3ccc(Cl)cc3OC)O4)C=N1)n2C[C@@H]1CCO1 (stereo partly drawn) [Compound 84, 2-((4-(2-(4-chloro-2-methoxyphenyl)-2-methylbenzo[d][1,3]dioxol-4-yl)-5,6-dihydro-1,2,4-triazin-1(4H)-yl)methyl)-4-(methoxy-d3)-1-(((S)-oxetan-2-yl)methyl)-1H-benzo[d]imidazole-6-carboxylic acid]
17 | 0.01 | [2H]C([2H])([2H])C([2H])([2H])Oc1cc(C(=O)O)cc2c1nc(CN1CCC(c3cccc4c3OC(C)(c3ccc(Cl)cn3)O4)CC1)n2C[C@@H]1CCO1 (stereo partly drawn) [Compound 72, 2-((4-(2-(5-chloropyridin-2-yl)-2-methylbenzo[d][1,3]dioxol-4-yl)piperidin-1-yl)methyl)-4-(ethoxy-d5)-1-(((S)-oxetan-2-yl)methyl)-1H-benzo[d]imidazole-6-carboxylic acid]
18 | 0.0087 | COc1cc(C(F)(F)F)ccc1C1(C)Oc2cccc(N3C=NN(Cc4nc5c(OC)cc(C(=O)O)cc5n4C[C@@H]4CCO4)CC3)c2O1 (stereo partly drawn) [Compound 88, 4-methoxy-2-((4-(2-(2-methoxy-4-(trifluoromethyl)phenyl)-2-methylbenzo[d][1,3]dioxol-4-yl)-5,6-dihydro-1,2,4-triazin-1(4H)-yl)methyl)-1-(((S)-oxetan-2-yl)methyl)-1H-benzo[d]imidazole-6-carboxylic acid]
19 | 0.0115 | CCOc1cc(C(=O)O)cc2c1nc(CN1CCN(c3cccc4c3OC(C)(c3ccc(Cl)c(F)c3F)O4)C=N1)n2C[C@@H]1CCO1 (stereo partly drawn) [Compound 78, 2-((4-(2-(4-chloro-2,3-difluorophenyl)-2-methylbenzo[d][1,3]dioxol-4-yl)-5,6-dihydro-1,2,4-triazin-1(4H)-yl)methyl)-4-ethoxy-1-(((S)-oxetan-2-yl)methyl)-1H-benzo[d]imidazole-6-carboxylic acid]
20 | 0.0064 | CCOc1cc(C(=O)O)cc2c1nc(CN1CCN(c3cccc4c3OC(C)(c3ccc(Cl)cc3F)O4)C=N1)n2C[C@@H]1CCO1 (stereo partly drawn) [Compound 68, 2-((4-(2-(4-chloro-2-fluorophenyl)-2-methylbenzo[d][1,3]dioxol-4-yl)-5,6-dihydro-1,2,4-triazin-1(4H)-yl)methyl)-4-ethoxy-1-(((S)-oxetan-2-yl)methyl)-1H-benzo[d]imidazole-6-carboxylic acid]
21 | 0.0175 | [2H]C([2H])([2H])Oc1cc(C(=O)O)cc2c1nc(CN1CCN(c3cccc4c3OC(C)(c3ccc(Cl)cc3F)O4)C=N1)n2C[C@@H]1CCO1 (stereo partly drawn) [Compound 71, 2-((4-(2-(4-chloro-2-fluorophenyl)-2-methylbenzo[d][1,3]dioxol-4-yl)-5,6-dihydro-1,2,4-triazin-1(4H)-yl)methyl)-4-(methoxy-d3)-1-(((S)-oxetan-2-yl)methyl)-1H-benzo[d]imidazole-6-carboxylic acid]
22 | 0.001 | CCOc1cc(C(=O)O)cc2c1nc(CN1CCN(c3cccc(OCc4ccc(Cl)cc4F)n3)C=N1)n2C[C@@H]1CCO1 [Compound 21, (S)-2-((4-(6-((4-chloro-2-fluorobenzyl)oxy)pyridin-2-yl)-5,6-dihydro-1,2,4-triazin-1(4H)-yl)methyl)-4-ethoxy-1-(oxetan-2-ylmethyl)-1H-benzo[d]imidazole-6-carboxylic acid]
23 | 0.0052 | CCOc1cc(C(=O)O)cc2c1nc(CN1CCN(c3cccc4c3OC(C)(c3ccc(C(F)(F)F)cn3)O4)C=N1)n2C[C@@H]1CCO1 (stereo partly drawn) [Compound 66, 4-ethoxy-2-((4-(2-methyl-2-(5-(trifluoromethyl)pyridin-2-yl)benzo[d][1,3]dioxol-4-yl)-5,6-dihydro-1,2,4-triazin-1(4H)-yl)methyl)-1-(((S)-oxetan-2-yl)methyl)-1H-benzo[d]imidazole-6-carboxylic acid]

Same assay, conditions: cAMP levels of the hGLP-1R/HEK293 cell line; Table 2, comparison with reference compounds; read-out: EC50

Row | EC50 [nM] | Compound
24 | 0.0327 | O=C(O)c1ccc2nc(CN3CCC(c4cccc(OCc5ccc(Cl)cc5F)n4)CC3)n(C[C@@H]3CCO3)c2c1 [WO2018109607 , Example 3A-01, reference compound]
